Laboratory results from patent publication US20250304576A1 (Cancer Research Technology Limited, priority 2022, published 2025).

Target: T1, CHUK (IKK alpha) (Homo sapiens, UniProt O15111)
T1 construct: purchased Life Technologies (assay performed by the vendor)
T1 sequence (O15111 1-745): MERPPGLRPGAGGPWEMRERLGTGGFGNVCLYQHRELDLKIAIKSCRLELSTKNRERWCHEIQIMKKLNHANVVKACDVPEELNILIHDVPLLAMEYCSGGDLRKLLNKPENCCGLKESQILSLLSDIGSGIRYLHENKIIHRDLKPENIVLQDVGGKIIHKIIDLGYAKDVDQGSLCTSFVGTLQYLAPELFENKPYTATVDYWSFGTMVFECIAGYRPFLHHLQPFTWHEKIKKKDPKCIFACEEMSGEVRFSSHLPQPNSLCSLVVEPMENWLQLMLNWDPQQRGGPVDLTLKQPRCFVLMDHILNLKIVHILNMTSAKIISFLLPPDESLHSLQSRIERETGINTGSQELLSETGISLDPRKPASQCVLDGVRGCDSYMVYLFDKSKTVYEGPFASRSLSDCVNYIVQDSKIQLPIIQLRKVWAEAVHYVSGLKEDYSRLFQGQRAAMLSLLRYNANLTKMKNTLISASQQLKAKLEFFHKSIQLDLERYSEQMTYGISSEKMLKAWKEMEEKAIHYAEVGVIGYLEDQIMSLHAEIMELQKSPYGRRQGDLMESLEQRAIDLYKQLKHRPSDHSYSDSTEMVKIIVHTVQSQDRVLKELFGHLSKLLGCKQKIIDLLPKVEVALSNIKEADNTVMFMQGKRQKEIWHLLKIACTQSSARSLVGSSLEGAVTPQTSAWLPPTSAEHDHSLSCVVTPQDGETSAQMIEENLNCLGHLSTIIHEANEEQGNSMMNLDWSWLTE
Experiment: Adapta IKKα assay (TR-FRET ADP formation, Life Technologies)
Type: biochemical
Method: IKKα and IKKβ inhibitory activity was determined using three different assays: a dissociation enhanced ligand fluorescent immunoassay (DELFIA) based on the protocol of HTScan™ IKKβ Kinase Assay (Cell Signaling Technology, USA); an Adapta IKKα assay (performed by Life Technologies); a Z′-LYTE™ IKKβ assay (performed by Life Technologies).
The reaction was performed in low-volume white 384-well plates (Corning model 4512).
The test compounds were screened in 1% DMSO (final) in the well. For 10 point titrations, 3-fold serial dilutions were conducted from the starting concentration of 50 mM.
The 2× CHUK (IKK alpha) kinase was prepared in 50 mM HEPES pH 7.5, 0.01% BRIJ-35, 10 mM MgCl2 and 1 mM EGTA. The final 10 μL kinase mixture consisted of 50-250 ng CHUK (IKK alpha) in 32.5 mM HEPES pH 7.5, 0.005% BRIJ-35, 5 mM MgCl2 and 0.5 mM EGTA. No substrate was required, as the assay measures the ability of a compound to inhibit the kinase's intrinsic ATPase activity.
5 μL of 2× Kinase mixture was incubated with 2.5 μL of ATP solution diluted to a 4×working concentration in water, in the presence of 100 nL of 100× test compound in 100% DMSO and 2.4 μL of 30 mM HEPES buffer.
After 30-second plate shake and 1-minute centrifuge at 1000×g, the resulting kinase reaction was allowed to incubate for 1 hour at room temperature before 5 μL of Detection Mix was added.
The Detection Mix, previously prepared in TR-FRET Dilution Buffer, consisted of EDTA (30 mM), Eu-anti-ADP antibody (6 nM) and an Alexa Fluor™ 647 labelled ADP tracer. The Detection Mix contained the EC60 concentration of tracer for 5-150 μM ATP.
After 30-second plate shake and 1-minute centrifuge at 1000×g, the Detection Mix was allowed to equilibrate at room temperature for 1 hour. Then the plate was read using a fluorescence plate reader configured for Adapta™ TR-FRET and the data analysed.
ADP formation was determined by calculating the emission ratio from the assay well. Therefore, the emission ratio was calculated by dividing the intensity of the tracer (acceptor) emission by the intensity of the Eu (donor) emission at 615 nm as shown in the equation below.
The IKKα and IKKb figures quoted in italicised form are from the Adapta assay described above.

[1] = Adapta assay (second line of an example)

Structure (SMILES) | IC50 [1] [nM] | IC50 (Adapta assay) [nM]
CC(C)(C)Cc1cc2c(-c3ccc4[nH]nc(N)c4c3)ccnc2[nH]1 [Example 220, 5-(2-Neopentyl-1H-pyrrolo[2,3-b]pyridin-4-yl)-1H-indazol-3-amine] | 2 | 
CC(C)(C)NCc1cc2c(-c3ccc4[nH]nc(N)c4c3)ccnc2[nH]1 [Example 248, 5-(2-((tert-Butylamino)methyl)-1H-pyrrolo[2,3-b]pyridine-4-yl)-1H-indazol-3-amine] | 34 | 
Nc1n[nH]c2ccc(-c3ccnc4[nH]c(CCC5CCCCC5)cc34)cc12 [Example 222, 5-(2-(2-Cyclohexylethyl)-1H-pyrrolo[2,3-b]pyridin-4-yl)-1H-indazol-3-amine] | 26 | 
Nc1nccc(-c2ccc3[nH]nc(N)c3c2)c1C#CC1(O)CCCCC1 [Example 90, 1-((2-Amino-4-(3-amino-1H-indazol-5-yl)pyridine-3-yl)ethynyl)cyclohexan-1-ol] |  | 3
Nc1cc(-c2cc(-c3ccoc3)c3[nH]nc(N)c3c2)ccn1 [Example 129, 5-(2-Aminopyridin-4-yl)-7-(furan-3-yl)-1H-indazol-3-amine] |  | 5
Nc1n[nH]c2ccc(-c3ccnc4[nH]c(C(=O)NC5CCCCC5)cc34)cc12 [Example 236, 4-(3-Amino-1H-indazol-5-yl)-N-cyclohexyl-1H-pyrrolo[2,3-b]pyridine-2-carboxamide] | 2 | 
Nc1nccc(-c2ccc3[nH]nc(N)c3c2)c1C#CCCCO [Example 85, 5-(2-Amino-4-(3-amino-1H-indazol-5-yl)pyridine-3-yl)pent-4-yn-1-ol] |  | 1
CC(C)(C)OCC#Cc1c(-c2ccc3[nH]nc(N)c3c2)ccnc1N [Example 88, 5-(2-Amino-3-(3-(tert-butoxy)prop-1-yn-1-yl)pyridine-4-yl)-1H-indazol-3-amine] |  | 8
Nc1n[nH]c2ccc(-c3ccnc4[nH]c(CN5CCC(F)(F)CC5)cc34)cc12 [Example 261, 5-(2-((4,4-Difluoropiperidin-1-yl)methyl)-1H-pyrrolo[2,3-b]pyridine-4-yl)-1H-indazol-3-amine] | 11 | 
Nc1nccc(-c2ccc3[nH]nc(N)c3c2)c1C#CC1CCCCC1 [Example 74, 5-(2-Amino-3-(cyclohexylethynyl)pyridine-4-yl)-1H-indazol-3-amine] |  | 3
CC(C)(C)C#Cc1cc(-c2ccnc(N)c2)cc2c(N)n[nH]c12 [Example 137, 5-(2-Aminopyridin-4-yl)-7-(3,3-dimethylbut-1-yn-1-yl)-1H-indazol-3-amine] |  | 11
Nc1n[nH]c2ccc(-c3ccnc4[nH]c(CN5CCCCC5)cc34)cc12 [Example 260, 5-(2-(Piperidin-1-ylmethyl)-1H-pyrrolo[2,3-b]pyridine-4-yl)-1H-indazol-3-amine] | 27 | 
CC(C)(O)C#Cc1cc(-c2ccnc3[nH]ccc23)cc2c(N)n[nH]c12 [Example 206, 4-(3-Amino-5-(1H-pyrrolo[2,3-b]pyridin-4-yl)-1H-indazol-7-yl)-2-methylbut-3-yn-2-ol] | 9 | 
Nc1n[nH]c2ccc(-c3ccnc4[nH]c(CCN5CCCCC5)cc34)cc12 [Example 267, 5-(2-(2-(Piperidin-1-yl)ethyl)-1H-pyrrolo[2,3-b]pyridine-4-yl)-1H-indazol-3-amine] | 8 | 

Second part, the compound after the results:

IC50 [1] [nM] | IC50 (Adapta assay) [nM] | Structure (SMILES)
1 |  | Nc1n[nH]c2ccc(-c3ccnc4[nH]c(C5CC5)cc34)cc12 [Example 218, 5-(2-Cyclopropyl-1H-pyrrolo[2,3-b]pyridin-4-yl)-1H-indazol-3-amine]
11 |  | CN1CCCN(Cc2cc3c(-c4ccc5[nH]nc(N)c5c4)ccnc3[nH]2)CC1 [Example 266, 5-(2-((4-Methyl-1,4-diazepan-1-yl)methyl)-1H-pyrrolo[2,3-b]pyridin-4-yl)-1H-indazol-3-amine]
27 |  | Nc1n[nH]c2c(C#CCCCN3CCOCC3)cc(-c3ccnc4[nH]ccc34)cc12 [Example 210, 7-(5-Morpholinopent-1-yn-1-yl)-5-(1H-pyrrolo[2,3-b]pyridin-4-yl)-1H-indazol-3-amine]
 | 1 | Nc1nccc(-c2ccc3[nH]nc(N)c3c2)c1C#CCO [Example 83, 3-(2-Amino-4-(3-amino-1H-indazol-5-yl)pyridine-3-yl)prop-2-yn-1-ol]
3.3 |  | C#Cc1cc(-c2ccnc3[nH]ccc23)cc2c(N)n[nH]c12 [Example 200, 7-Ethynyl-5-(1H-pyrrolo[2,3-b]pyridin-4-yl)-1H-indazol-3-amine]
32 |  | Nc1n[nH]c2ccc(-c3ccnc4[nH]c(C(=O)N5CCCC5)cc34)cc12 [Example 234, (4-(3-Amino-1H-indazol-5-yl)-1H-pyrrolo[2,3-b]pyridin-2-yl)(pyrrolidin-1-yl)methanone]
1 |  | Nc1n[nH]c2ccc(-c3ccnc4[nH]c(C5CCOCC5)cc34)cc12 [Example 228, 5-(2-(tetrahydro-2H-pyran-4-yl)-1H-pyrrolo[2,3-b]pyridin-4-yl)-1H-indazol-3-amine]
 | 7 | Nc1nccc(-c2ccc3[nH]nc(N)c3c2)c1C#CC1(O)CCCCCC1 [Example 91, 1-((2-Amino-4-(3-amino-1H-indazol-5-yl)pyridine-3-yl)ethynyl)cycloheptan-1-ol]
13 |  | CN1CCN(C(=O)c2cc3c(-c4ccc5[nH]nc(N)c5c4)ccnc3[nH]2)CC1 [Example 243, (4-(3-Amino-1H-indazol-5-yl)-1H-pyrrolo[2,3-b]pyridin-2-yl)(4-methylpiperazin-1-yl)methanone]
1 |  | Nc1n[nH]c2ccc(-c3ccnc4[nH]c(CC5CCOCC5)cc34)cc12 [Example 230, 5-(2-((tetrahydro-2H-pyran-4-yl)methyl)-1H-pyrrolo[2,3-b]pyridin-4-yl)-1H-indazol-3-amine]
 | 3 | Nc1cc(-c2cc(-c3ccccc3)c3[nH]nc(N)c3c2)ccn1 [Example 104, 5-(2-Aminopyridin-4-yl)-7-phenyl-1H-indazol-3-amine]
 | 39 | CC(C)(O)C#Cc1cc(-c2ccnc(N)c2)cc2c(N)n[nH]c12 [Example 140, 4-(3-Amino-5-(2-aminopyridin-4-yl)-1H-indazol-7-yl)-2-methylbut-3-yn-2-ol]
6 |  | Nc1n[nH]c2ccc(-c3ccnc4[nH]c(CNC5CCCCC5)cc34)cc12 [Example 251, 5-(2-((cyclohexylamino)methyl)-1H-pyrrolo[2,3-b]339yridine-4-yl)-1H-indazol-3-amine]
 | 3 | Nc1nccc(-c2ccc3[nH]nc(N)c3c2)c1C#CCCC(=O)N1CCOCC1 [Example 99, 5-(2-Amino-4-(3-amino-1H-indazol-5-yl)pyridine-3-yl)-1-morpholinopent-4-yn-1-one]
10 |  | CN(C)CCCNCc1cc2c(-c3ccc4[nH]nc(N)c4c3)ccnc2[nH]1 [Example 258, N^1-((4-(3-amino-1H-indazol-5-yl)-1H-pyrrolo[2,3-b]pyridin-2-yl)methyl)-N^3,N^3-dimethylpropane-1,3-diamine]
 | 7 | Nc1nccc(-c2ccc3[nH]nc(N)c3c2)c1C#CCCN1CCCCC1 [Example 93, 5-(2-Amino-3-(4-(piperidin-1-yl)but-1-yn-1-yl)pyridin-4-yl)-1H-indazol-3-amine]
4 |  | Nc1n[nH]c2ccc(-c3ccnc4[nH]c(CCCN5CCCCC5)cc34)cc12 [Example 269, 5-(2-(3-(Piperidin-1-yl)propyl)-1H-pyrrolo[2,3-b]pyridin-4-yl)-1H-indazol-3-amine]
 | 21 | Nc1nccc(-c2ccc3[nH]nc(N)c3c2)c1C#CCCCN1CCOCC1 [Example 96, 5-(2-Amino-3-(5-morpholinopent-1-yn-1-yl)pyridin-4-yl)-1H-indazol-3-amine]
